Earlier results, collected in patent US20130095160A1, “RESORBABLE POLYSTATIN BIOMATERIALS” (priority 2011, published 2013).

How the values were obtained:
SR-BI receptor = target: T1, SR-BI receptor (Homo sapiens, UniProt Q8WTV0); conditions: via activation of the SR-BI receptor
T1 sequence (Q8WTV0 1-552): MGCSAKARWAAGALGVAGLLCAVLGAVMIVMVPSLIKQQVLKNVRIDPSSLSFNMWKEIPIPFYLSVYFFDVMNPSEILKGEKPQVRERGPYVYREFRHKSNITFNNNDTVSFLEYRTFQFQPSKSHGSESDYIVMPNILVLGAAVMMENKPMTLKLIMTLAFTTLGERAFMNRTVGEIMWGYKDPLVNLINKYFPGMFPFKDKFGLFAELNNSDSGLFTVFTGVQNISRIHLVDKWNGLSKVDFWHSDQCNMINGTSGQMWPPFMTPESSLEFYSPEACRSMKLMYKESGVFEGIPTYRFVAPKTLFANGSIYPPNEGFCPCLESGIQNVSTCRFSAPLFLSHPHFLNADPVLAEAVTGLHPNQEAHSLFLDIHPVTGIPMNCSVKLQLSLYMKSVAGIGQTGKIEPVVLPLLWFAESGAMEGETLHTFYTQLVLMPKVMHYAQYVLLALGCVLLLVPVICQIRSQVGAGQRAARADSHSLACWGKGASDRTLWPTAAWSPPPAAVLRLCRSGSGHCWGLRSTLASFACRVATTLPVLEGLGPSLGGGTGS

eNOS = conditions: 12 mg (or 10(−5) M lovastatin); previously shown

CC[C@H](C)C(=O)O[C@H]1C[C@@H](C)C=C2C=C[C@H](C)[C@H](CC[C@@H]3C[C@@H](O)CC(=O)O3)[C@H]21 [lovastatin]
efficiency at generating EDNO compared with HDL (SR-BI receptor): more efficient than HDL | eNOS activation in vitro (eNOS): maximally effective
